Results taken from publication PMC9120017, “Inhibition mechanism of the chloride channel TMEM16A by the pore blocker 1PBC” (Nature Communications, 2022).
Like-named read-outs stand apart in the source and are kept apart here.

Target: T1, mouse TMEM16A mutant G558P (Mus musculus, UniProt Q8BHY3, G558P)
T1 construct: expressed in transfected cells; host or cells: HEK293T
T1 sequence (Q8BHY3 1-960 G558P): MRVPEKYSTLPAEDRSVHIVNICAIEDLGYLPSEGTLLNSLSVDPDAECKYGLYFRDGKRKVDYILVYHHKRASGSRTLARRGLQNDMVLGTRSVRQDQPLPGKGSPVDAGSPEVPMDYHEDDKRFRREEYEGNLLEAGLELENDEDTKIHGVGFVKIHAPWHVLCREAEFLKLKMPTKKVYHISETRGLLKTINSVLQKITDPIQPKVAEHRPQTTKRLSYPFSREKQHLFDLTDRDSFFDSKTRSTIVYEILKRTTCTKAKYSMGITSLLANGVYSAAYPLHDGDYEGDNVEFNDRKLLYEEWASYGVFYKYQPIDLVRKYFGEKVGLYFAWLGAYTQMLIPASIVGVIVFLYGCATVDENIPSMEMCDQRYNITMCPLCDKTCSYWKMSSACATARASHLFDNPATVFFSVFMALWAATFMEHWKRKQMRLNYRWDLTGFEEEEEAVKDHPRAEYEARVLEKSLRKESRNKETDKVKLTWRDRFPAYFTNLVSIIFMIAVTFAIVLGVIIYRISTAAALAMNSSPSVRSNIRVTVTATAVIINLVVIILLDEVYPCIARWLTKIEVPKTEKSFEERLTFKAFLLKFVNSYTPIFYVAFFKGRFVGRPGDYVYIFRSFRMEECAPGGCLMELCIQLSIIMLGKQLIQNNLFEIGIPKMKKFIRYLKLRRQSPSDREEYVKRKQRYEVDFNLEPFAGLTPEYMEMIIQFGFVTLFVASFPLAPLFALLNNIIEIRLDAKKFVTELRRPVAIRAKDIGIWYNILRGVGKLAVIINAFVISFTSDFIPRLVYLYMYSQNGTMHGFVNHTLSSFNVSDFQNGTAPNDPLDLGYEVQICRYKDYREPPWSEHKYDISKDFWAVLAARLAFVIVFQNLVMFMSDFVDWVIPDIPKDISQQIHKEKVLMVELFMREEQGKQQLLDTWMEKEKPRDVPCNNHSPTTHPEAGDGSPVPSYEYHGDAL
Assay: Inside-out patch recording of 1PBC block, mutant G558P
Format: cell-based
Settings: for remaining activity at 1 µM: 1PBC conc 1; for remaining activity at 1 µM / remaining activity at 3 µM / remaining activity at 10 µM / remaining activity at 30 µM / remaining activity at 100 µM: read-out: relative current in 1PBC (avr); for remaining activity at 3 µM: 1PBC conc 3; for remaining activity at 10 µM: 1PBC conc 10; for remaining activity at 30 µM: 1PBC conc 30; for remaining activity at 100 µM: 1PBC conc 100
Experimental: HEK293T cells (ATCC CRL-1573) were maintained in Dulbecco’s modified Eagle’s medium (DMEM; Sigma-Aldrich) supplemented with 10 U ml^−1 penicillin, 0.1 mg ml^−1 streptomycin (Sigma-Aldrich), 2 mM L-glutamine (Sigma-Aldrich), and 10% FBS (Sigma-Aldrich) in a humidified atmosphere containing 5% CO2 at 37 °C. HEK293S GnTI^− cells (ATCC CRL-3022) were maintained in HyClone HyCell TransFx-H medium (GE Healthcare) supplemented with 10 U ml^−1 penicillin, 0.1 mg ml^−1 streptomycin, 4 mM L-glutamine, 0.15% poloxamer 188 (Sigma-Aldrich), and 1% FBS in an atmosphere containing 5% CO2 at 185 rpm at 37 °C. The ac splice variant of mouse TMEM16A (UniProt ID: Q8BHY3), mouse TMEM16B (UniProt ID: Q8CFW1), or mouse TMEM16F (UniProt ID: Q6P9J9) bearing a 3C cleavage site, a Venus YFP, a Myc tag, and a Streptavidin-binding peptide (SBP) downstream of the open reading frame in a modified pcDNA3.1 vector (Invitrogen) were used as described previously[21],[31]. Mutations were introduced using a modified QuikChange method[58] and were verified by sequencing.
HEK293T cells were transfected with 3–4 μg DNA per 6 cm Petri dish using the calcium phosphate co-precipitation method and were used within 24–96 h after transfection. Recordings were performed on inside-out patches excised from HEK293T cells expressing the construct of interest. Patch pipettes were pulled from borosilicate glass capillaries (O.D. 1.5 mm, I.D. 0.86 mm, Sutter Instrument) and were fire-polished with a microforge (Narishige) before use. Pipette resistance was typically 3–8 MΩ when filled with the recording solutions detailed below. Seal resistance was typically 4 GΩ or higher. Voltage-clamp recordings were made using Axopatch 200B, Digidata 1550, and Clampex 10.7 (Molecular Devices). Analog signals were filtered with the in-built 4-pole Bessel filter at 10 kHz and were digitized at 20 kHz. Solution exchange was achieved using a gravity-fed system through a theta glass pipette mounted on an ultra-fast piezo-driven stepper (Siskiyou). […] All recordings were performed at 20 °C.
A symmetrical ionic condition was used throughout. Stock solution with Ca^2+-EGTA contained 150 mM NaCl, 5.99 mM Ca(OH)2, 5 mM EGTA, and 10 mM HEPES at pH 7.40. Stock solution with EGTA contained 150 mM NaCl, 5 mM EGTA, and 10 mM HEPES at pH 7.40. Free Ca^2+ concentrations were adjusted by mixing the stock solutions at the required ratios calculated using the WEBMAXC program (http://web.stanford.edu/~cpatton/webmaxcS.htm). Patch pipettes were filled with the stock solution with Ca^2+-EGTA, which has a free Ca^2+ concentration of 1 mM. 1PBC (ChemBridge) stock was reconstituted in anhydrous DMSO (Sigma-Aldrich) at 100 mM and stored at −20 °C. Working solutions with 1PBC were prepared by serial dilution. Unless otherwise stated, experiments were performed at a saturating Ca^2+ concentration as shown in Supplementary Table 1 and the primary data were corrected for current rundown as described previously[21],[25].
Concentration-response relations, obtained from the ratio of the I-V plots before and after the application of the blocker, were fitted to the Hill equation,1 I/Imax=1/1+IC50/[blocker]^h where I/Imax is the normalized current responses, IC50 defines the concentration at which inhibition is at its half-maximum, and h is the Hill coefficient.

SMILES: N#Cc1c(C(F)(F)F)cc(O)n2c1nc1ccccc12 [1PBC]
- IC50 (0 mV, 15 µM Ca2+): 6.23 µM
- remaining activity at 1 µM (0 mV): 83.9%
- remaining activity at 3 µM (0 mV): 66.6%
- remaining activity at 10 µM (0 mV): 39.1%
- remaining activity at 30 µM (0 mV): 18.8%
- remaining activity at 100 µM (0 mV): 7.07%
- I/Imax_+80mV (1 μM 1PBC): 0.7511
- I/Imax_-80mV (1 μM 1PBC, -80 mV): 0.9508
- I/Imax_+80mV (3 μM 1PBC): 0.5097
- I/Imax_-80mV (3 μM 1PBC, -80 mV): 0.8567
- I/Imax_+80mV (10 μM 1PBC): 0.2409
- I/Imax_-80mV (10 μM 1PBC, -80 mV): 0.6177
- Effect of mutation G558P on block by 1PBC (15 µM Ca2+): did not interfere with block
- I/Imax_+80mV (30 μM 1PBC): 0.1115
- I/Imax_-80mV (30 μM 1PBC, -80 mV): 0.3696
- I/Imax_+80mV (100 μM 1PBC): 0.03071
- I/Imax_-80mV (100 μM 1PBC, -80 mV): 0.1483
- IC50 (20 mV, 15 µM Ca2+): 4.87 µM
- remaining activity at 1 µM (20 mV): 81.1%
- remaining activity at 3 µM (20 mV): 60.9%
- remaining activity at 10 µM (20 mV): 34%
- remaining activity at 30 µM (20 mV): 15.5%
- remaining activity at 100 µM (20 mV): 5.33%
- IC50 (40 mV, 15 µM Ca2+): 3.94 µM
- remaining activity at 1 µM (40 mV): 78.3%
- remaining activity at 3 µM (40 mV): 56.7%
- remaining activity at 10 µM (40 mV): 28.5%
- remaining activity at 30 µM (40 mV): 13.4%
- remaining activity at 100 µM (40 mV): 4.84%
- IC50 (60 mV, 15 µM Ca2+): 3.4 µM
- remaining activity at 1 µM (60 mV): 75.9%
- remaining activity at 3 µM (60 mV): 52.9%
- remaining activity at 10 µM (60 mV): 26.1%
- remaining activity at 30 µM (60 mV): 12%
- remaining activity at 100 µM (60 mV): 3.75%
- IC50 (80 mV, 15 µM Ca2+): 3.14 µM
- remaining activity at 1 µM (80 mV): 75.1%
- remaining activity at 3 µM (80 mV): 51%
- remaining activity at 10 µM (80 mV): 24.1%
- remaining activity at 30 µM (80 mV): 11.2%
- remaining activity at 100 µM (80 mV): 3.07%
- IC50 (100 mV, 15 µM Ca2+): 3.03 µM
- remaining activity at 1 µM (100 mV): 75.6%
- remaining activity at 3 µM (100 mV): 50.3%
- remaining activity at 10 µM (100 mV): 22.1%
- remaining activity at 30 µM (100 mV): 10.7%
- remaining activity at 100 µM (100 mV): 2.38%
- IC50 (120 mV, 15 µM Ca2+): 3.26 µM
- remaining activity at 1 µM (120 mV): 77.2%
- remaining activity at 3 µM (120 mV): 52.2%
- remaining activity at 10 µM (120 mV): 23.4%
- remaining activity at 30 µM (120 mV): 10.7%
- remaining activity at 100 µM (120 mV): 2.42%
- IC50 (140 mV, 15 µM Ca2+): 3.86 µM
- remaining activity at 1 µM (140 mV): 81.4%
- remaining activity at 3 µM (140 mV): 57%
- remaining activity at 10 µM (140 mV): 25.2%
- remaining activity at 30 µM (140 mV): 12%
- remaining activity at 100 µM (140 mV): 3.17%
- IC50 (-20 mV, 15 µM Ca2+): 7.94 µM
- remaining activity at 1 µM (-20 mV): 86.7%
- remaining activity at 3 µM (-20 mV): 72.3%
- remaining activity at 10 µM (-20 mV): 44.1%
- remaining activity at 30 µM (-20 mV): 22.2%
- remaining activity at 100 µM (-20 mV): 8.82%
- IC50 (-40 mV, 15 µM Ca2+): 10.4 µM
- remaining activity at 1 µM (-40 mV): 89.5%
- remaining activity at 3 µM (-40 mV): 77.5%
- remaining activity at 10 µM (-40 mV): 50.6%
- remaining activity at 30 µM (-40 mV): 26.7%
- remaining activity at 100 µM (-40 mV): 9.6%
- IC50 (-60 mV, 15 µM Ca2+): 13.4 µM
- remaining activity at 1 µM (-60 mV): 92.1%
- remaining activity at 3 µM (-60 mV): 80.7%
- remaining activity at 10 µM (-60 mV): 56.7%
- remaining activity at 30 µM (-60 mV): 32.1%
- remaining activity at 100 µM (-60 mV): 12.3%
- IC50 (-80 mV, 15 µM Ca2+): 17.1 µM
- remaining activity at 1 µM (-80 mV): 95.1%
- remaining activity at 3 µM (-80 mV): 85.7%
- remaining activity at 10 µM (-80 mV): 61.8%
- remaining activity at 30 µM (-80 mV): 37%
- remaining activity at 100 µM (-80 mV): 14.8%
- IC50 (-100 mV, 15 µM Ca2+): 21.1 µM
- remaining activity at 1 µM (-100 mV): 96.1%
- remaining activity at 3 µM (-100 mV): 88.1%
- remaining activity at 10 µM (-100 mV): 66.8%
- remaining activity at 30 µM (-100 mV): 41.5%
- remaining activity at 100 µM (-100 mV): 17.8%
- IC50 (-120 mV, 15 µM Ca2+): 25.4 µM
- remaining activity at 1 µM (-120 mV): 98.5%
- remaining activity at 3 µM (-120 mV): 90.8%
- remaining activity at 10 µM (-120 mV): 71.2%
- remaining activity at 30 µM (-120 mV): 45.8%
- remaining activity at 100 µM (-120 mV): 19.8%
- IC50 (-140 mV, 15 µM Ca2+): 30 µM
- remaining activity at 1 µM (-140 mV): 100%
- remaining activity at 3 µM (-140 mV): 92.8%
- remaining activity at 10 µM (-140 mV): 74.7%
- remaining activity at 30 µM (-140 mV): 49.7%
- remaining activity at 100 µM (-140 mV): 22.2%
- IC50 (G558P, V 0 mV): 6.23 µM
- IC50 (G558P, V 20 mV): 4.87 µM
- IC50 (G558P, V 40 mV): 3.94 µM
- IC50 (G558P, V 60 mV): 3.4 µM
- IC50 (G558P, V 80 mV): 3.14 µM
- IC50 (G558P, V 100 mV): 3.03 µM
- IC50 (G558P, V 120 mV): 3.26 µM
- IC50 (G558P, V 140 mV): 3.86 µM
- IC50 (G558P, V -20 mV): 7.94 µM
- IC50 (G558P, V -40 mV): 10.4 µM
- IC50 (G558P, V -60 mV): 13.4 µM
- IC50 (G558P, V -80 mV): 17.1 µM
- IC50 (G558P, V -100 mV): 21.1 µM
- IC50 (G558P, V -120 mV): 25.4 µM
- IC50 (G558P, V -140 mV): 30 µM
